Experimental data reported in ChEMBL document CHEMBL1201861, “Genomics of Drug Sensitity in Cancer screening data, Wellcome Trust Sanger Institute”.

Assays:
Test in all cases: cells
Type in all cases: functional, cell-based, Homo sapiens
COLO-829 = settings: Homo sapiens, COLO-829
Description: SANGER: Inhibition of human COLO-829 cell growth in a cell viability assay.

CP66-MEL = settings: Homo sapiens, CP66-MEL;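 also: growth inhibition of CP66-MEL cells determined in a cell viability assay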
Description: SANGER: Inhibition of human CP66-MEL cell growth in a cell viability assay.

CTV-1 = settings: Homo sapiens, CTV-1;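 also: growth inhibition of the cell line, read out with a cell viability assay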
Description: SANGER: Inhibition of human CTV-1 cell growth in a cell viability assay.

D283 Med = settings: Homo sapiens, D283 Med
Description: SANGER: Inhibition of human D-283MED cell growth in a cell viability assay.

DJM-1 = settings: Homo sapiens, DJM-1;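 also: growth inhibition of human DJM-1 cells, read out by a cell viability assay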
Description: SANGER: Inhibition of human DJM-1 cell growth in a cell viability assay.

EKVX = settings: Homo sapiens, EKVX;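 also: growth inhibition of human EKVX cells, read out with a cell viability assay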
Description: SANGER: Inhibition of human EKVX cell growth in a cell viability assay.

EW-1 = settings: Homo sapiens, EW-1
Description: SANGER: Inhibition of human EW-1 cell growth in a cell viability assay.

EW-18 = settings: Homo sapiens, EW-18;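 also: growth inhibition of EW-18 cells, read out by a cell viability assay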
Description: SANGER: Inhibition of human EW-18 cell growth in a cell viability assay.

GB-1 = settings: Homo sapiens, GB-1;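 also: growth of GB-1 cells judged by a viability assay, IC50 marks the concentration inhibiting growth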
Description: SANGER: Inhibition of human GB-1 cell growth in a cell viability assay.

GCIY = settings: Homo sapiens, GCIY;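 also: growth inhibition of the human GCIY cell line, read out by a cell viability assay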
Description: SANGER: Inhibition of human GCIY cell growth in a cell viability assay.

GI-1 = settings: Homo sapiens, GI-1;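 also: growth inhibition of human GI-1 cells, measured with a cell viability readout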
Description: SANGER: Inhibition of human GI-1 cell growth in a cell viability assay.

GR-ST = settings: Homo sapiens, GR-ST
Description: SANGER: Inhibition of human GR-ST cell growth in a cell viability assay.

HCE-T = settings: Homo sapiens, HCE-T;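 also: cell viability assay read-out, reporting inhibition of HCE-T cell growth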
Description: SANGER: Inhibition of human HCE-T cell growth in a cell viability assay.

HT-144 = settings: Homo sapiens, HT-144
Description: SANGER: Inhibition of human HT-144 cell growth in a cell viability assay.

JVM-2 = settings: Homo sapiens, JVM-2;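 also: growth inhibition of JVM-2 cells determined by a cell viability assay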
Description: SANGER: Inhibition of human JVM-2 cell growth in a cell viability assay.

JVM-3 = settings: Homo sapiens, JVM-3;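 also: growth inhibition of human JVM-3 cells, read out with a cell viability assay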
Description: SANGER: Inhibition of human JVM-3 cell growth in a cell viability assay.

KALS-1 = settings: Homo sapiens, KALS-1;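 also: growth inhibition of KALS-1 cells, determined with a cell viability assay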
Description: SANGER: Inhibition of human KALS-1 cell growth in a cell viability assay.

KARPAS-299 = settings: Homo sapiens, KARPAS-299
Description: SANGER: Inhibition of human KARPAS-299 cell growth in a cell viability assay.

KGN = settings: Homo sapiens, KGN;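 also: growth inhibition of KGN cells, read out with a cell viability assay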
Description: SANGER: Inhibition of human KGN cell growth in a cell viability assay.

KNS-42 = settings: Homo sapiens, KNS-42;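 also: growth inhibition of KNS-42 cells, read out with a cell viability assay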
Description: SANGER: Inhibition of human KNS-42 cell growth in a cell viability assay.

LB2241-RCC = settings: Homo sapiens, LB2241-RCC;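 also: cell viability assay measuring how strongly the cultured human renal carcinoma line is prevented from growing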
Description: SANGER: Inhibition of human LB2241-RCC cell growth in a cell viability assay.

LS-1034 = settings: Homo sapiens, LS-1034
Description: SANGER: Inhibition of human LS-1034 cell growth in a cell viability assay.

LS-513 = settings: Homo sapiens, LS-513
Description: SANGER: Inhibition of human LS-513 cell growth in a cell viability assay.

MHH-NB-11 = settings: Homo sapiens, MHH-NB-11;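 also: growth inhibition of human MHH-NB-11 cells, read out by a cell viability assay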
Description: SANGER: Inhibition of human MHH-NB-11 cell growth in a cell viability assay.

MHH-PREB-1 = settings: Homo sapiens, MHH-PREB-1;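 also: cell viability assay measuring inhibition of proliferation of human MHH-PREB-1 cells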
Description: SANGER: Inhibition of human MHH-PREB-1 cell growth in a cell viability assay.

MMAC-SF = settings: Homo sapiens, MMAC-SF;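 also: growth inhibition of human MMAC-SF cells, read out with a cell viability assay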
Description: SANGER: Inhibition of human MMAC-SF cell growth in a cell viability assay.

MOLT-4 = settings: Homo sapiens, MOLT-4;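 also: growth inhibition of MOLT-4 cells, determined with a cell viability readout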
Description: SANGER: Inhibition of human MOLT-4 cell growth in a cell viability assay.

MSTO-211H = settings: Homo sapiens, MSTO-211H
Description: SANGER: Inhibition of human MSTO-211H cell growth in a cell viability assay.

Mo = settings: Homo sapiens, Mo
Description: SANGER: Inhibition of human Mo-T cell growth in a cell viability assay.

NB5 = settings: Homo sapiens, NB5;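 also: growth inhibition of NB5 cells, read out as cell viability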
Description: SANGER: Inhibition of human NB5 cell growth in a cell viability assay.

NB69 = settings: Homo sapiens, NB69;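 also: growth inhibition of NB69 cells, determined by a cell viability assay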
Description: SANGER: Inhibition of human NB69 cell growth in a cell viability assay.

NCI-H1304 = settings: Homo sapiens, NCI-H1304;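 also: growth inhibition of the cancer cell line, measured in a cell viability assay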
Description: SANGER: Inhibition of human NCI-H1304 cell growth in a cell viability assay.

NCI-H23 = settings: Homo sapiens, NCI-H23;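 also: cell viability assay measuring growth inhibition of NCI-H23 cells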
Description: SANGER: Inhibition of human NCI-H23 cell growth in a cell viability assay.

NCI-H510A = settings: Homo sapiens, NCI-H510A;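 also: growth inhibition of NCI-H510A cells, read out with a cell viability assay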
Description: SANGER: Inhibition of human NCI-H510A cell growth in a cell viability assay.

NCI-H747 = settings: Homo sapiens, NCI-H747;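 also: growth inhibition of human NCI-H747 cells, read out by a cell viability assay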
Description: SANGER: Inhibition of human NCI-H747 cell growth in a cell viability assay.

NTERA-2-cl-D1 = settings: Homo sapiens, NTERA-2-cl-D1;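 also: inhibition of cell growth, measured with a cell viability assay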
Description: SANGER: Inhibition of human NTERA-S-cl-D1 cell growth in a cell viability assay.

OCI-AML2 = settings: Homo sapiens, OCI-AML2;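 also: growth inhibition of OCI-AML2 cells, read out with a cell viability assay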
Description: SANGER: Inhibition of human OCI-AML2 cell growth in a cell viability assay.

OS-RC-2 = settings: Homo sapiens, OS-RC-2;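 also: growth inhibition of human OS-RC-2 cells, measured by a cell viability assay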
Description: SANGER: Inhibition of human OS-RC-2 cell growth in a cell viability assay.

P30-OHK = settings: Homo sapiens, P30-OHK;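 also: growth inhibition of the P30-OHK cell line, read out with a cell viability assay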
Description: SANGER: Inhibition of human P30-OHK cell growth in a cell viability assay.

Ramos-2G6-4C10 = settings: Homo sapiens, Ramos-2G6-4C10;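 also: growth inhibition of the cell line, measured by a cell viability read-out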
Description: SANGER: Inhibition of human Ramos-2G6-4C10 cell growth in a cell viability assay.

SCC-15 = settings: Homo sapiens, SCC-15;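 also: growth inhibition of SCC-15 cells, read out with a cell viability assay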
Description: SANGER: Inhibition of human SCC-15 cell growth in a cell viability assay.

SK-MEL-1 = settings: Homo sapiens, SK-MEL-1;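 also: growth inhibition of human SK-MEL-1 cells, read out by a cell viability assay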
Description: SANGER: Inhibition of human SK-MEL-1 cell growth in a cell viability assay.

A388 = settings: Homo sapiens, A388;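 also: growth inhibition of human A388 cells, read out with a cell viability assay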
Description: SANGER: Inhibition of human A388 cell growth in a cell viability assay.

A4-Fuk = settings: Homo sapiens, A4-Fuk;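 also: growth inhibition of A4-Fuk cells, read out by a cell viability assay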
Description: SANGER: Inhibition of human A4-Fuk cell growth in a cell viability assay.

TE-11 = settings: Homo sapiens, TE-11;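 also: growth inhibition of human TE-11 cells, read out by a cell viability assay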
Description: SANGER: Inhibition of human TE-11 cell growth in a cell viability assay.

VA-ES-BJ = settings: Homo sapiens, VA-ES-BJ;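 also: growth inhibition of the VA-ES-BJ cell line, read out by a cell viability assay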
Description: SANGER: Inhibition of human VA-ES-BJ cell growth in a cell viability assay.

no-10 = settings: Homo sapiens;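 also: growth inhibition of no-10 cells, read out with a cell viability assay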
Description: SANGER: Inhibition of human no-10 cell growth in a cell viability assay.

COLO-320-HSR = settings: Homo sapiens, COLO-320-HSR;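 also: growth inhibition of COLO-320-HSR cells, determined with a cell viability assay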
Description: SANGER: Inhibition of human COLO-320-HSR cell growth in a cell viability assay.

KP-N-YS = settings: Homo sapiens, KP-N-YS;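 also: cell viability assay measuring inhibition of cell line growth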
Description: SANGER: Inhibition of human KP-N-YS cell growth in a cell viability assay.

C=C(c1ccc(C(=O)O)cc1)c1cc2c(cc1C)C(C)(C)CCC2(C)C [BEXAROTENE]
IC50 (COLO-829): > 8 µM
IC50 (CP66-MEL): > 8 µM
IC50 (CTV-1): > 8 µM
IC50 (D283 Med): > 8 µM
IC50 (DJM-1): > 8 µM
IC50 (EKVX): 0.165 µM
IC50 (EW-1): > 8 µM
IC50 (EW-18): > 8 µM
IC50 (GB-1): > 8 µM
IC50 (GCIY): > 8 µM
IC50 (GI-1): > 8 µM
IC50 (GR-ST): > 8 µM
IC50 (HCE-T): > 8 µM
IC50 (HT-144): > 8 µM
IC50 (JVM-2): > 8 µM
IC50 (JVM-3): > 8 µM
IC50 (KALS-1): > 8 µM
IC50 (KARPAS-299): > 8 µM
IC50 (KGN): > 8 µM
IC50 (KNS-42): > 8 µM
IC50 (LB2241-RCC): > 8 µM
IC50 (LS-1034): > 8 µM
IC50 (LS-513): > 8 µM
IC50 (MHH-NB-11): > 8 µM
IC50 (MHH-PREB-1): > 8 µM
IC50 (MMAC-SF): > 8 µM
IC50 (MOLT-4): > 8 µM
IC50 (MSTO-211H): > 8 µM
IC50 (Mo): > 8 µM
IC50 (NB5): > 8 µM
IC50 (NB69): > 8 µM
IC50 (NCI-H1304): > 8 µM
IC50 (NCI-H23): > 8 µM
IC50 (NCI-H510A): > 8 µM
IC50 (NCI-H747): > 8 µM
IC50 (NTERA-2-cl-D1): > 8 µM
IC50 (OCI-AML2): > 8 µM
IC50 (OS-RC-2): > 8 µM
IC50 (P30-OHK): > 8 µM
IC50 (Ramos-2G6-4C10): > 8 µM
IC50 (SCC-15): > 8 µM
IC50 (SK-MEL-1): > 8 µM
IC50 (A388): > 8 µM
IC50 (A4-Fuk): > 8 µM
IC50 (TE-11): > 8 µM
IC50 (VA-ES-BJ): > 8 µM
IC50 (no-10): > 8 µM
IC50 (COLO-320-HSR): > 8 µM

CC[C@H](CO)Nc1nc(NCc2ccccc2)c2ncn(C(C)C)c2n1 [SELICICLIB]
IC50 (COLO-829): > 16 µM
IC50 (CP66-MEL): > 16 µM
IC50 (CTV-1): > 16 µM
IC50 (D283 Med): > 16 µM
IC50 (DJM-1): > 16 µM
IC50 (EKVX): > 16 µM
IC50 (EW-1): > 16 µM
IC50 (EW-18): > 16 µM
IC50 (GB-1): > 16 µM
IC50 (GCIY): 12.9 µM
IC50 (GI-1): > 16 µM
IC50 (GR-ST): > 16 µM
IC50 (HCE-T): > 16 µM
IC50 (HT-144): > 16 µM
IC50 (JVM-2): > 16 µM
IC50 (JVM-3): > 16 µM
IC50 (KALS-1): > 16 µM
IC50 (KARPAS-299): > 16 µM
IC50 (KGN): > 16 µM
IC50 (KNS-42): > 16 µM
IC50 (KP-N-YS): > 16 µM
IC50 (LB2241-RCC): > 16 µM
IC50 (LS-1034): > 16 µM
IC50 (LS-513): > 16 µM
IC50 (MHH-NB-11): > 16 µM
IC50 (MHH-PREB-1): > 16 µM
IC50 (MMAC-SF): > 16 µM
IC50 (MOLT-4): > 16 µM
IC50 (MSTO-211H): > 16 µM
IC50 (Mo): > 16 µM
IC50 (NB5): > 16 µM
IC50 (NB69): > 16 µM
IC50 (NCI-H1304): > 16 µM
IC50 (NCI-H23): > 16 µM
IC50 (NCI-H510A): > 16 µM
IC50 (NCI-H747): > 16 µM
IC50 (NTERA-2-cl-D1): > 16 µM
IC50 (OCI-AML2): 15.6 µM
IC50 (OS-RC-2): 15.8 µM
IC50 (P30-OHK): > 16 µM
IC50 (Ramos-2G6-4C10): > 16 µM
IC50 (SCC-15): > 16 µM
IC50 (SK-MEL-1): > 16 µM
IC50 (A388): > 16 µM
IC50 (A4-Fuk): > 16 µM
IC50 (VA-ES-BJ): > 16 µM
IC50 (no-10): > 16 µM
IC50 (COLO-320-HSR): > 16 µM
